Drawing on a melting point compilation (Tetko et al.; mined from patent text by program, amines drawn as free bases though some values may be those of a salt), this text covers melting point for 65 compounds.

Broadly, the melting point is the temperature, or range, at which the solid turns liquid.

In turn, `O=c1c(O)cn(-c2cccc(C(F)(F)F)c2)nc1-c1ccnn1-c1ccccc1` came in with a melting point of 246 to 248 °C.

Take `CCCCCc1cc(C(=O)O)c(C)o1`: the melting point lay within 47 to 48 °C.

Turning to `O=C(O)COc1cc2c(c(Cl)c1Cl)C(=O)C(c1ccccc1)(C1CCCC1)C2` (stereo not given), the melting point lay in the range of 184 to 186 °C.

Consider `COc1cccc(OC)c1C(=O)NC(=O)Nc1ccc(-c2ccc(Cl)cc2)cn1`, for which the melting point was 205 to 215 °C.

As to `O=C1C(=O)c2c(nc3ccccn23)-c2cc([N+](=O)[O-])ccc21`, the melting point is over 300 °C.

On to `CCOC(=O)C1CN(CC)c2nc(SC)ncc2C1=O` (stereo not given), for which the melting point amounted to 157 °C.

`CC1CCC2(C(=O)O)CCC3(C)C(=CCC4C5(C)CC(O)C(O)C(C)(C)C5CCC43C)C2C1C` (stereo not given): the melting point was in the range of 242 to 244 °C.

As for `O=C(Nc1c(C(O)(C(F)(F)F)C(F)(F)F)ccc2ccccc12)c1ccc(Br)cc1`, the melting point was 155 to 156 °C.

The compound `O=C(OCC1OC(OC(=O)c2ccccc2)C(O)C1OC(=O)c1ccccc1)c1ccccc1` (stereo not given) had a melting point of 137 to 138 °C.

For `Cc1oc(-c2ccccc2)nc1CCOc1cccc(OC(C)(C)C(=O)O)c1`, the melting point was 140 to 141 °C.

With `COc1ccc(C(=O)N(C)Cc2cccc(-c3ccc(CC4SC(=O)NC4=O)cc3)c2)cc1` (stereo not given), the melting point was found to be 170 °C.

In turn, `COc1cc2c(cc1OC)C(=O)CCCO2` came in with a melting point of 87 to 88 °C.

Compound `CCOC(=O)c1ncc2[nH]c3cccc(OCc4ccccc4)c3c2c1COC` yielded a melting point of 130 to 131 °C.

As to `c1ccc(CSc2ncnc3c(N4CCOCC4)nc(N4CCNCC4)nc23)cc1`, the melting point lay in the range of 191 to 193 °C.

As for `OCc1nc2n(n1)-c1ccccc1N(c1ccc(Cl)cc1)C2`, the melting point was 190 to 195 °C.

In turn, `CN(C)C=CC(=O)c1ccc(C(=O)N2Cc3cccn3Cc3ccccc32)cc1` came in with a melting point of 203 to 205 °C.

`CCOC(=O)c1sc(SC)c2c1CCC(C(OCC)OCC)C2=O` (stereo not given) gave a melting point of 113 to 114 °C.

In turn, `O=C(NCCO)c1cccc(-c2ccc3c(c2)N(c2ccc(Cl)cc2Cl)CCCC3)c1` returned a melting point of 172 to 173 °C.

Regarding `C[C@@H](S[C@H]1CO[C@H](c2ccc(C(=O)Nc3ccc(C#N)c4ccccc34)cc2)OC1)[C@](O)(Cn1cncn1)c1ccc(F)cc1F`, the melting point stood at 109 °C.

In the case of `Oc1ccc(-c2cccnc2)cc1`, the melting point worked out at 195 °C.

For the compound `c1cc2c(c3c1CCN3)OCCO2`, the melting point fell in the range of 130 to 132 °C.

As for `CCCc1c(SCCCSc2ccc(-c3nnn[nH]3)cc2)ccc(C(C)=O)c1O`, the melting point was in the range of 160 to 162 °C.

Consider `CNc1nc2cccc(C(=O)O)c2s1`, for which the melting point is over 330 °C.

As for `O=C1c2ccccc2C(=O)N1OCc1cc(=O)c(OCc2ccccc2)co1`, the melting point came to 172 °C.

For `Clc1cccc(Oc2ccc(OCn3cnc(Cl)c3Cl)cc2)n1`, the melting point lay in the range of 94 to 98 °C.

In turn, `O=C1Nc2ccc(Cl)cc2C1c1ncnc2c1cnn2C1CCCC1` (stereo not given) yielded a melting point of 304 to 306 °C.

`COC(=O)CCCc1cc2nc(Cl)ccc2n1S(=O)(=O)c1ccc2ncsc2c1`: the melting point amounted to 55 °C.

Turning to `O=C(C=Cc1ccccc1)Oc1ccc2ccccc2c1`, the melting point was 99 to 101 °C.

`Cc1ccnc(Sc2cnc(N)s2)n1`: the melting point is 158 to 159 °C.

On to `COC(=O)c1cccc2c1Nc1c(I)cccc1C2`, for which the melting point is 105 to 107 °C.

For `CCOCCOc1c(C)cc(C#CC2(O)CN3CCC2CC3)cc1C` (stereo not given), the melting point lay within 113 to 115 °C.

In turn, `CC=Cc1cccc2c(=O)c(C)c(-c3ccc(OC)cc3)oc12` yielded a melting point of 169 to 171 °C.

Take `C[Si](C)(C)OC1(C#N)CCOc2ccc(Cl)cc21` (stereo not given): the melting point lay in the range of 72 to 73 °C.

`CCOc1ccc2c(c1)n(C1CCCCC1)c(=O)n2Cc1ccc(NC(=NC#N)NC)cc1OC` yielded a melting point of 195 °C.

In turn, `COC(=O)c1ccc2oc(-c3cccs3)nc2c1` registered a melting point of 141 to 142 °C.

With `Nc1c2c(nc3ccccc13)-c1ccccc1CCC2`, the melting point was 190 to 192 °C.

For the compound `Nc1nc2c(ncn2COCCOC(=O)c2ccccc2)c(=O)[nH]1`, the melting point was in the range of 222 to 226 °C.

Consider `CCOC(=O)c1n[nH]c2ncc(I)cc2c1=O`, for which the melting point lay within 238 to 242 °C.

Regarding `COc1cccc(CNc2cc(C(N)=O)c([N+](=O)[O-])cc2[N+](=O)[O-])c1`, the melting point lay in the range of 222 to 224 °C.

For the compound `CN1c2ccc(C=C3SC(=O)NC3=O)cc2CCC1Cc1ccccc1` (stereo not given), the melting point lay within 214 to 217 °C.

Compound `CCCNc1ncnc2c1ncn2CCCN1CCC(COc2ccccc2)CC1` displayed a melting point of 62 to 63 °C.

Turning to `O=C(c1ccc(F)cc1)c1ccc(C(c2ccc(C(=O)c3ccc(F)cc3)cc2)(C(F)(F)F)C(F)(F)F)cc1`, the melting point fell in the range of 142 to 143 °C.

Compound `CNC(=O)CN1CCC(C(O)(c2ccc(F)cc2)c2ccc(F)cc2)CC1` yielded a melting point of 122 to 124 °C.

With `OCC1COC(c2c(F)cccc2F)=N1` (stereo not given), the melting point was 82 °C.

On to `COc1nc(C)nc(NC(=O)NS(=O)(=O)c2ccccc2-n2nnnc2C)n1`, for which the melting point fell in the range of 207 to 209 °C.

`Cc1noc(C2CC2)c1I` had a melting point of 71 °C.

For the compound `CCOC(=O)c1cc(=O)cc(-c2ccccc2Cl)o1`, the melting point lay in the range of 104 to 106 °C.

For `C[C@@H]1CN(C(=O)[C@@](C)(O)C(F)(F)F)[C@@H](C)CN1S(=O)(=O)c1ccc(C(=O)O)cc1`, the melting point was in the range of 194 to 196 °C.

On to `CS(=O)(=O)c1ccc(-n2nc(C(F)(F)F)cc2-c2ccc(-c3cocn3)cc2)cc1`, for which the melting point lay in the range of 175 to 177 °C.

As to `CNC(=O)c1cc(Br)cc(F)c1Nc1nc(Cl)ncc1Cl`, the melting point was in the range of 246 to 249 °C.

`CSc1n[nH]c(-c2cc(C(C)(C)C)c(O)c(C(C)(C)C)c2)n1` gave a melting point of 271 to 272 °C.

For `CC(C)[Si](C#Cc1c2cc3ccccc3cc2c(C#C[Si](C(C)C)(C(C)C)C(C)C)c2cc3ccccc3cc12)(C(C)C)C(C)C`, the melting point amounted to 210 °C.

In the case of `COC(=O)c1ccc(C(=O)NCc2cccc(O)c2)cc1C`, the melting point was in the range of 100 to 103 °C.

`C=CCOc1ccc(-c2cc(=O)c3c(O)cc(OCOC)cc3o2)cc1` registered a melting point of 100 to 101 °C.

Turning to `CCOC(=O)CCc1cc(OCC(=O)NNC(C)=O)nn1Cc1ccc(Cl)cc1Cl`, the melting point was 167 to 170 °C.

On to `Cc1nc2c(N)nc3ccccc3c2n1C`, for which the melting point was 288 to 290 °C.

Compound `Nc1nccc(OCCc2ccccc2)c1N` showed a melting point of 86 to 87 °C.

As to `Nc1nc(Cl)cc(OC(F)(F)F)n1`, the melting point fell in the range of 55 to 56 °C.

`N#CSCC(Br)=C(Br)CSC#N` displayed a melting point of 180 °C.

In turn, `N#CC1(c2ccccc2)CCC(O)CC1` (stereo not given) registered a melting point of 103 to 111 °C.

In turn, `NC(=O)N(O)CC1CCCCC1` returned a melting point of 143 to 144 °C.

In turn, `O=C1OCCN1CCN1CCN(C2Cc3cc(Br)ccc3Sc3ccccc32)CC1` (stereo not given) registered a melting point of 170 to 172 °C.

`Cc1cnc(NC(=O)C(C)C)o1` gave a melting point of 109 to 110 °C.

`O=C(O)C[C@H](NC(=O)Nc1ccc([N+](=O)[O-])cc1)C(=O)O` yielded a melting point of 118 to 120 °C.

On to `N#Cc1cc(NC(=O)c2cc3ccccc3o2)ccc1OC1CCN(Cc2ccccc2)CC1`, for which the melting point stood at 175 °C.
